In ChEMBL document CHEMBL1201862, “PubChem BioAssay data set” (2004):
Activity calls are given as the source filed them.

Experiments:
[1] = M. tuberculosis H37Rv growth inhibitors, H37Rv strain (AID 1626); type: functional
cells = type: functional
CAAX prenyl protease 2 = biological target: T1, CAAX prenyl protease 2 (Saccharomyces cerevisiae S288c, UniProt Q03530); type: biochemical
T1 sequence (Q03530 whole entry): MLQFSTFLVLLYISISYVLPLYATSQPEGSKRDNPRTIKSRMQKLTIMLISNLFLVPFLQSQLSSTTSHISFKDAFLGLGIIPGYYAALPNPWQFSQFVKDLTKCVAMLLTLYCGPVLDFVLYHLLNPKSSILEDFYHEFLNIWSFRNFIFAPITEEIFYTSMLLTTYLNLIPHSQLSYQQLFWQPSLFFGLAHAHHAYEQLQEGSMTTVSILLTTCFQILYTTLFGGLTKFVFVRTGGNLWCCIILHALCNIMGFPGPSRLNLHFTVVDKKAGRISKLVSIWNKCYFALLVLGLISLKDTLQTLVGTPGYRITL

Estrogen receptor = biological target: T2, Estrogen receptor (Homo sapiens, UniProt P03372);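 note: potency for inhibiting coactivator peptide recruitment to the receptor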
T2 sequence (P03372 whole entry): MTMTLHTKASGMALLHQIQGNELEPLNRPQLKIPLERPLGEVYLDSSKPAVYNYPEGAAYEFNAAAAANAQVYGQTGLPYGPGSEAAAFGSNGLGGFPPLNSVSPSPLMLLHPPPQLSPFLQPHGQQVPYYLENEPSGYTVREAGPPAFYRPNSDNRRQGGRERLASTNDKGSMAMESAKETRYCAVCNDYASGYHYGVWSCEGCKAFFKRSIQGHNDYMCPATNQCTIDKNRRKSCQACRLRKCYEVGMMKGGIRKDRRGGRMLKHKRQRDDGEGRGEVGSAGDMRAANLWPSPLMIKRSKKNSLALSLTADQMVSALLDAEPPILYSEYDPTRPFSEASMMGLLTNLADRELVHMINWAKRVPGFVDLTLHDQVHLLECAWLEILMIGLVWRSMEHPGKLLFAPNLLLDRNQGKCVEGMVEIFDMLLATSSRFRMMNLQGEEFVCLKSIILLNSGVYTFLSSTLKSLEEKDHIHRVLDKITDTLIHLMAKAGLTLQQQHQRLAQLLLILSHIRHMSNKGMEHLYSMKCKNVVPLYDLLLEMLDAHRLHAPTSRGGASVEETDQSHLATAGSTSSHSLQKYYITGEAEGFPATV

Mucolipin-3 = biological target: T3, Mucolipin-3 (Homo sapiens, UniProt Q8TDD5); assay: Dose response cell-based high-throughput screening assay for agonists of the transient receptor potential channel ML3 (TRPML3). [Related pubchem assays: 1526, 1424, 1448 ]; type: functional
T3 sequence (Q8TDD5 whole entry): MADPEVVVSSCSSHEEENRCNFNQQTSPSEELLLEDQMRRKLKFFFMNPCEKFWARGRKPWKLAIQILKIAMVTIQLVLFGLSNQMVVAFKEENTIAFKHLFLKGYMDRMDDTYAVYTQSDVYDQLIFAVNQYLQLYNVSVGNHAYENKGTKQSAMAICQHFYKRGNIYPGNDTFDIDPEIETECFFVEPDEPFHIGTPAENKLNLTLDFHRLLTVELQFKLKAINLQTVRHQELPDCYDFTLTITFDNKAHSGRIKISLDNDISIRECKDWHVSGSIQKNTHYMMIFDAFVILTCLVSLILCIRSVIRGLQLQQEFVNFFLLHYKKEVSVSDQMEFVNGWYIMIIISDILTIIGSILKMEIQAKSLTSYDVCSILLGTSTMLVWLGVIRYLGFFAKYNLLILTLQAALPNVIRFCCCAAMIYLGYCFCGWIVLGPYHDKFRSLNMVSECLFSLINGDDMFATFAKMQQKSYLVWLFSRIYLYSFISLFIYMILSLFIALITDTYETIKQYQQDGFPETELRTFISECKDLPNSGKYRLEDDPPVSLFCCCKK

Ion channel NompC = Ion channel NompC (Danio rerio, UniProt Q7T1G6); assay: Fluorescence counterscreen assay for TRPML3 agonists: dose response cell-based high-throughput screening assay to identify agonists of the transient receptor potential channel N1 (TRPN1). [Related pubchem assays: 1526, 1424, 1448 ]; type: functional
Ion channel NompC, sequence (Q7T1G6 whole entry): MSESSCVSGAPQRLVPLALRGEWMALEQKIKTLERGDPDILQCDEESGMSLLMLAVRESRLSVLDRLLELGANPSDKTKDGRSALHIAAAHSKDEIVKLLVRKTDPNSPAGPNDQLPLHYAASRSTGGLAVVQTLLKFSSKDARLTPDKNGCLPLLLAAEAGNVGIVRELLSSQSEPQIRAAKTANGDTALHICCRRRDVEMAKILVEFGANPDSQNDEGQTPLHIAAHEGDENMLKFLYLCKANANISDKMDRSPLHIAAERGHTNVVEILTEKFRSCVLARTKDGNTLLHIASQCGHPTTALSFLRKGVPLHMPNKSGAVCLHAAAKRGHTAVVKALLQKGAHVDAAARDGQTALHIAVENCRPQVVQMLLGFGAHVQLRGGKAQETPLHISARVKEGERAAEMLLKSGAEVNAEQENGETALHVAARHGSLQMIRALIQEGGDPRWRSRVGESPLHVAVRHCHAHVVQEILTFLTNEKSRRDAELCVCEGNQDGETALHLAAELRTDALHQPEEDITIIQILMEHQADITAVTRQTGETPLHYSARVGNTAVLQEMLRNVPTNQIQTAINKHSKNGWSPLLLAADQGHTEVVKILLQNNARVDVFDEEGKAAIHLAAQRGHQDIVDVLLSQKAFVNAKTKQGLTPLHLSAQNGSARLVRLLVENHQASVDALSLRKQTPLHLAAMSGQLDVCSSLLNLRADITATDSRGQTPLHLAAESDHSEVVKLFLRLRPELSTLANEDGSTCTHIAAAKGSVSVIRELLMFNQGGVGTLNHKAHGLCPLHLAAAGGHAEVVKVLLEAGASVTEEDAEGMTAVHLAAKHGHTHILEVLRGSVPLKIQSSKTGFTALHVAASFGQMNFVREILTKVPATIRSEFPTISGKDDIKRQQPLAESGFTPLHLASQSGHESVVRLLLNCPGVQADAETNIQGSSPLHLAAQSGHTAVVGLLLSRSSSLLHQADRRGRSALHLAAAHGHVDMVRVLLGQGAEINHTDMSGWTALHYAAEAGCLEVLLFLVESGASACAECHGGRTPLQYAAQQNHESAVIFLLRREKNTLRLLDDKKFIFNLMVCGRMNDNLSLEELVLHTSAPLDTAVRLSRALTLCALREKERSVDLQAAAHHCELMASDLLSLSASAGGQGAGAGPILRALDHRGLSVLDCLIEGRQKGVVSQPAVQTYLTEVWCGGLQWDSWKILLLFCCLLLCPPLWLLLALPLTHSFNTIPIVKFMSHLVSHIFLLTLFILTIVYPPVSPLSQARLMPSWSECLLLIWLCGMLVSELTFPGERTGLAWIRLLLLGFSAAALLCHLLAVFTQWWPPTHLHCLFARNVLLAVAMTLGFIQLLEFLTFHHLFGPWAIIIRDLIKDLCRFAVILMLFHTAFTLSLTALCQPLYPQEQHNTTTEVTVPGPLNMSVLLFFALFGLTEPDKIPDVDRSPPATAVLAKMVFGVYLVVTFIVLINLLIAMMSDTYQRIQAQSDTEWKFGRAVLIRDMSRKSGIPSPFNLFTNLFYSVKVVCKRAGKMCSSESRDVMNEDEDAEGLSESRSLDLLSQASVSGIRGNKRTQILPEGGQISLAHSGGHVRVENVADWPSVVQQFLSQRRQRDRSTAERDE

[2] = biological target: Eukaryotic translation initiation factor 4H (Homo sapiens, UniProt Q15056); assay: inhibitors of translation initiation factor eIF4H – SAR follow-up (AID 435011); type: functional
[3] = biological target: Polyadenylate-binding protein 1 (Homo sapiens, UniProt P11940); assay: PABP inhibition in translation initiation, SAR follow-up (AID 435018); type: functional
Polyadenylate-binding protein 1, sequence (P11940 whole entry): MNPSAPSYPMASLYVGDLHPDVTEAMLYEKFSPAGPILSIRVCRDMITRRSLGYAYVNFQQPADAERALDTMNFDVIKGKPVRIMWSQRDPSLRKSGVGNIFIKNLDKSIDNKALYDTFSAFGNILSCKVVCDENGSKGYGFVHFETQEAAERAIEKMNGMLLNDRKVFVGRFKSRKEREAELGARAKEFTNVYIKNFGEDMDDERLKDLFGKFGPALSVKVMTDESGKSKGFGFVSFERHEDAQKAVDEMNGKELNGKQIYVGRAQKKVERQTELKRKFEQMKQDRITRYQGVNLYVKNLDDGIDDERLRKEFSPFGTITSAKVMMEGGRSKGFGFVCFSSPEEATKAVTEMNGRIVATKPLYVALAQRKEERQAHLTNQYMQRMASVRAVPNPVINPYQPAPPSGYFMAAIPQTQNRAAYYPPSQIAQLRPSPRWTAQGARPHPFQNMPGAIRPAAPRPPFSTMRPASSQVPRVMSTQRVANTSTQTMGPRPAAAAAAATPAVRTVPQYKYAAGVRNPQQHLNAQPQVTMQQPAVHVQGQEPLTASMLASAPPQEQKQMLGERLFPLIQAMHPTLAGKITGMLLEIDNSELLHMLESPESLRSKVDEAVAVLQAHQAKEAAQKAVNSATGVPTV

[4] = Luminescence Cell-Based Dose Retest to Confirm Inhibitors of Cancer Stem Cells. [Related pubchem assays (depositor defined):AID2717, AID2721]; type: functional; conditions: Homo sapiens
[5] = biological target: Induced myeloid leukemia cell differentiation protein Mcl-1 (Homo sapiens, UniProt Q07820); type: functional
Induced myeloid leukemia cell differentiation protein Mcl-1, sequence (Q07820 whole entry): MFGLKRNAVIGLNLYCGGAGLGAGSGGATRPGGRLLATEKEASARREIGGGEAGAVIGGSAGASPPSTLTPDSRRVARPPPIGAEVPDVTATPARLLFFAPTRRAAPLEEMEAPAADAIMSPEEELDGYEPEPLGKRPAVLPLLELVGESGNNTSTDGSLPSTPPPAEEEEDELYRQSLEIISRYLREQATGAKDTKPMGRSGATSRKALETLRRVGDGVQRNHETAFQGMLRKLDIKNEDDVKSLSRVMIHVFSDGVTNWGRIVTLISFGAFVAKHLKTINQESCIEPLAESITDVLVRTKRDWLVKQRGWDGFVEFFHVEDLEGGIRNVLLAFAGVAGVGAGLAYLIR

CCOC(=O)c1ccc(-n2c(CCC(=O)O)ccc2-c2cccs2)cc1
IC50 [1]: > 100 µM (active) | IC50 (cells): 36.2 µM (active)

Cc1ccc(OCCn2c3ccccc3n3nc(C)c(=O)nc23)cc1
AC50 (CAAX prenyl protease 2): 6.85 µM (active)

CCOc1cccc(-c2nnc3sc(-c4cc(OC)c(OC)c(OC)c4)nn23)c1
IC50 (Estrogen receptor): > 50 µM (not active)

CCC1CCCCN1S(=O)(=O)c1ccccc1[N+](=O)[O-] (configuration not stated)
EC50 (Mucolipin-3): 6.06 µM (active) | EC50 (Ion channel NompC): > 29.9 µM (not active)

COc1ccc(NC(=O)C2CCCN2C(=O)Oc2ccccc2)cc1 (configuration not stated)
IC50 [2]: > 100 µM (inactive) | IC50 [3]: > 100 µM (inactive)

CCC1CCCCN1S(=O)(=O)c1ccc(S(=O)(=O)N(Cc2ccccn2)CC2CCCO2)cc1 (configuration not stated)
EC50 (Mucolipin-3): 1.81 µM (active) | AC50 [4]: 2.4 µM (active) | EC50 (Ion channel NompC): > 29.9 µM (not active) | IC50 [5]: < 0.4 µM (not active)
